How the values were obtained:
Type in all cases: in vivo
[1] = test system: black-grass; experiment: Test Example 3: weedkilling efficacy through soil treatment; H: black-grass; conditions: treatment dosage 315 g/ha
In short: (§1)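 Crop and weed responses were judged three weeks after a uniform surface spray of the water-diluted emulsion at the given g/ha rate. Seeds sat beneath about 1.5 cm of sterilized diluvial soil, and boxes stood in a greenhouse at 25 to 30° C.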

[2] = test system: Indian mallow; experiment: Test Example 4: weedkilling efficacy by foliar treatment; K: Indian mallow; conditions: treatment dosage 315 g/ha
In short: (§2)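 Seeds are spot-sown into sterilized diluvial soil and covered with about 1.5 cm of soil. After 14 days' greenhouse growth at 25 to 30° C, plants are sprayed on stems and leaves with diluted emulsion at the stated g/ha rate, then scored at 3 weeks.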

[3] = test system: oval-leafed pondweed; experiment: Test Example 1: weedkilling efficacy, preemergent weed treatment in the submerged state; C: oval-leafed pondweed; conditions: treatment dosage 252 g/ha
In short: (§3)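 Pre-emergence paddy test: weed seeds sown in submerged alluvial soil (4 cm water), 2.5-leaf rice transplanted, water-diluted emulsion applied to water surface at sowing at stated g/ha. Scored at 3 weeks, greenhouse 25–30 °C.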

[4] = test system: Italian ryegrass; experiment: Test Example 3: weedkilling efficacy through soil treatment; I: Italian ryegrass; conditions: treatment dosage 315 g/ha
In short: as §1

[5] = test system: barnyard grass; experiment: Test Example 1: weedkilling efficacy, preemergent weed treatment in the submerged state; A: barnyard grass; conditions: treatment dosage 252 g/ha
In short: as §3

[6] = test system: bulrush; experiment: Test Example 1: weedkilling efficacy, preemergent weed treatment in the submerged state; B: bulrush; conditions: treatment dosage 252 g/ha
In short: as §3

[7] = test system: chickweed; experiment: Test Example 3: weedkilling efficacy through soil treatment; N: chickweed; conditions: treatment dosage 315 g/ha
In short: as §1

[8] = test system: wild oat; experiment: Test Example 3: weedkilling efficacy through soil treatment; G: wild oat; conditions: treatment dosage 315 g/ha
In short: as §1

[9] = test system: green foxtail; experiment: Test Example 4: weedkilling efficacy by foliar treatment; E: green foxtail; conditions: treatment dosage 315 g/ha
In short: as §2

[10] = test system: Indian mallow; experiment: Test Example 3: weedkilling efficacy through soil treatment; K: Indian mallow; conditions: treatment dosage 315 g/ha
In short: as §1

[11] = test system: black-grass; experiment: Test Example 4: weedkilling efficacy by foliar treatment; H: black-grass; conditions: treatment dosage 315 g/ha
In short: as §2

[12] = test system: Italian ryegrass; experiment: Test Example 4: weedkilling efficacy by foliar treatment; I: Italian ryegrass; conditions: treatment dosage 315 g/ha
In short: as §2

[13] = test system: chickweed; experiment: Test Example 4: weedkilling efficacy by foliar treatment; N: chickweed; conditions: treatment dosage 315 g/ha
In short: as §2

[14] = test system: beet; experiment: Test Example 4: foliar treatment, effect on crop; f: beet; conditions: treatment dosage 315 g/ha
In short: as §2

[15] = test system: redroot pigweed; experiment: Test Example 3: weedkilling efficacy through soil treatment; L: redroot pigweed; conditions: treatment dosage 315 g/ha
In short: as §1

[16] = test system: soybean; experiment: Test Example 4: foliar treatment, effect on crop; d: soybean; conditions: treatment dosage 315 g/ha
In short: as §2

[17] = test system: barnyard grass; experiment: Test Example 2: weedkilling efficacy, growth period weed treatment in the submerged state; A: barnyard grass; conditions: treatment dosage 252 g/ha
In short: (§4)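 Seedlings at 1-2 leaves in 4 cm-deep submerged alluvial soil received emulsion formulations on the water surface, dosed per hectare; effects were judged 3 weeks on.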

[18] = test system: wheat; experiment: Test Example 3: soil treatment, effect on crop; e: wheat; conditions: treatment dosage 315 g/ha
In short: as §1

[19] = test system: green foxtail; experiment: Test Example 3: weedkilling efficacy through soil treatment; E: green foxtail; conditions: treatment dosage 315 g/ha
In short: as §1

[20] = test system: redroot pigweed; experiment: Test Example 4: weedkilling efficacy by foliar treatment; L: redroot pigweed; conditions: treatment dosage 315 g/ha
In short: as §2

[21] = test system: birds-eye speedwell; experiment: Test Example 4: weedkilling efficacy by foliar treatment; p: birds-eye speedwell; conditions: treatment dosage 315 g/ha
In short: as §2

[22] = test system: bulrush; experiment: Test Example 2: weedkilling efficacy, growth period weed treatment in the submerged state; B: bulrush; conditions: treatment dosage 252 g/ha
In short: as §4

[23] = test system: corn; experiment: Test Example 3: soil treatment, effect on crop; c: corn; conditions: treatment dosage 315 g/ha
In short: as §1

[24] = test system: transplanted rice; experiment: Test Example 1: preemergent weed treatment in the submerged state, effect on crop; a: transplanted rice; conditions: treatment dosage 252 g/ha
In short: as §3

[25] = test system: crabgrass; experiment: Test Example 3: weedkilling efficacy through soil treatment; D: crabgrass; conditions: treatment dosage 315 g/ha
In short: as §1

[26] = test system: beet; experiment: Test Example 3: soil treatment, effect on crop; f: beet; conditions: treatment dosage 315 g/ha
In short: as §1

[27] = test system: birds-eye speedwell; experiment: Test Example 3: weedkilling efficacy through soil treatment; p: birds-eye speedwell; conditions: treatment dosage 315 g/ha
In short: as §1

[28] = test system: directly sown rice; experiment: Test Example 4: foliar treatment, effect on crop; b: directly sown rice; conditions: treatment dosage 315 g/ha
In short: as §2

[29] = test system: soybean; experiment: Test Example 3: soil treatment, effect on crop; d: soybean; conditions: treatment dosage 315 g/ha
In short: as §1

[30] = test system: fig-leafed goosefoot; experiment: Test Example 3: weedkilling efficacy through soil treatment; M: fig-leafed goosefoot; conditions: treatment dosage 315 g/ha
In short: as §1

[31] = test system: wheat; experiment: Test Example 4: foliar treatment, effect on crop; e: wheat; conditions: treatment dosage 315 g/ha
In short: as §2

[32] = test system: directly sown rice; experiment: Test Example 3: soil treatment, effect on crop; b: directly sown rice; conditions: treatment dosage 315 g/ha
In short: as §1

[33] = test system: catchweed; experiment: Test Example 4: weedkilling efficacy by foliar treatment; O: catchweed; conditions: treatment dosage 315 g/ha
In short: as §2

[34] = test system: oval-leafed pondweed; experiment: Test Example 2: weedkilling efficacy, growth period weed treatment in the submerged state; C: oval-leafed pondweed; conditions: treatment dosage 252 g/ha
In short: as §4

[35] = test system: fig-leafed goosefoot; experiment: Test Example 4: weedkilling efficacy by foliar treatment; M: fig-leafed goosefoot; conditions: treatment dosage 315 g/ha
In short: as §2

[36] = test system: crabgrass; experiment: Test Example 4: weedkilling efficacy by foliar treatment; D: crabgrass; conditions: treatment dosage 315 g/ha
In short: as §2

[37] = test system: corn; experiment: Test Example 4: foliar treatment, effect on crop; c: corn; conditions: treatment dosage 315 g/ha
In short: as §2

`COc1nsc(NC(=O)C(C)(C)N2COC(C)=C(c3ccsc3)C2=O)n1` [B-1-04] was tested, and the “H (black-grass) weedkilling efficacy grade” value [1] was 5 (weed kill ratio 90% or more, (practically complete withering)), the “K (Indian mallow) weedkilling efficacy grade” value [2] was 4 (weed kill ratio 70% or more, less than 90%) and the “C (oval-leafed pondweed) weedkilling efficacy grade” value [3] was 5 (weed kill ratio 90% or more, (practically complete withering)). For the same compound, the “I (Italian ryegrass) weedkilling efficacy grade” value [4] was 5 (weed kill ratio 90% or more, (practically complete withering)), the “A (barnyard grass) weedkilling efficacy grade” value [5] was 5 (weed kill ratio 90% or more, (practically complete withering)) and the “B (bulrush) weedkilling efficacy grade” value [6] was 5 (weed kill ratio 90% or more, (practically complete withering)). For the same compound, the “N (chickweed) weedkilling efficacy grade” value [7] was 4 (weed kill ratio 70% or more, less than 90%), the “G (wild oat) weedkilling efficacy grade” value [8] was 4 (weed kill ratio 70% or more, less than 90%) and the “E (green foxtail) weedkilling efficacy grade” value [9] was 4 (weed kill ratio 70% or more, less than 90%). For the same compound, the “K (Indian mallow) weedkilling efficacy grade” value [10] was 3 (weed kill ratio 40% or more, less than 70%), the “H (black-grass) weedkilling efficacy grade” value [11] was 5 (weed kill ratio 90% or more, (practically complete withering)) and the “I (Italian ryegrass) weedkilling efficacy grade” value [12] was 5 (weed kill ratio 90% or more, (practically complete withering)). For the same compound, the “N (chickweed) weedkilling efficacy grade” value [13] was 3 (weed kill ratio 40% or more, less than 70%), the “f (beet) effect on crop grade” value [14] was 5 (weed kill ratio 90% or more, (practically complete withering)) and the “L (redroot pigweed) weedkilling efficacy grade” value [15] was 4 (weed kill ratio 70% or more, less than 90%). The “d (soybean) effect on crop grade” value [16] was 0 (weed kill ratio 5% or less (practically no effect)), the “A (barnyard grass) weedkilling efficacy grade” value [17] was 5 (weed kill ratio 90% or more, (practically complete withering)) and the “e (wheat) effect on crop grade” value [18] was 0 (weed kill ratio 5% or less (practically no effect)). For the same compound, the “E (green foxtail) weedkilling efficacy grade” value [19] was 5 (weed kill ratio 90% or more, (practically complete withering)), the “L (redroot pigweed) weedkilling efficacy grade” value [20] was 4 (weed kill ratio 70% or more, less than 90%) and the “P (birds-eye speedwell) weedkilling efficacy grade” value [21] was 3 (weed kill ratio 40% or more, less than 70%). For the same compound, the “B (bulrush) weedkilling efficacy grade” value [22] was 5 (weed kill ratio 90% or more, (practically complete withering)), the “c (corn) effect on crop grade” value [23] was 0 (weed kill ratio 5% or less (practically no effect)) and the “a (transplanted rice) effect on crop grade” value [24] was 0 (weed kill ratio 5% or less (practically no effect)). The “D (crabgrass) weedkilling efficacy grade” value [25] was 5 (weed kill ratio 90% or more, (practically complete withering)), the “f (beet) effect on crop grade” value [26] was 4 (weed kill ratio 70% or more, less than 90%) and the “P (birds-eye speedwell) weedkilling efficacy grade” value [27] was 5 (weed kill ratio 90% or more, (practically complete withering)). The “b (directly sown rice) effect on crop grade” value [28] was 4 (weed kill ratio 70% or more, less than 90%), the “d (soybean) effect on crop grade” value [29] was 0 (weed kill ratio 5% or less (practically no effect)) and the “M (fig-leafed goosefoot) weedkilling efficacy grade” value [30] was 5 (weed kill ratio 90% or more, (practically complete withering)). For the same compound, the “e (wheat) effect on crop grade” value [31] was 0 (weed kill ratio 5% or less (practically no effect)), the “b (directly sown rice) effect on crop grade” value [32] was 4 (weed kill ratio 70% or more, less than 90%) and the “O (catchweed) weedkilling efficacy grade” value [33] was 4 (weed kill ratio 70% or more, less than 90%). For the same compound, the “C (oval-leafed pondweed) weedkilling efficacy grade” value [34] was 5 (weed kill ratio 90% or more, (practically complete withering)), the “M (fig-leafed goosefoot) weedkilling efficacy grade” value [35] was 5 (weed kill ratio 90% or more, (practically complete withering)) and the “D (crabgrass) weedkilling efficacy grade” value [36] was 4 (weed kill ratio 70% or more, less than 90%). For the same compound, the “c (corn) effect on crop grade” value [37] was 3 (weed kill ratio 40% or more, less than 70%).

— patent US9738634B2, “Heterocyclic amide compound and herbicide” (SYNGENTA PARTICIPATIONS AG, priority 2013, dated 2017)
